Measurements taken from PubChem BioAssay AID330 (DTP/NCI, 2004).
Where “and” joins values, the source holds several entries; their conditions need not be identical. Identical values can stand only once. Toxic doses and inconclusive results are not listed. Rule for the calls: active = survival T/C of 150% or more; inactive = T/C below 125% in these data.

Test system: P388 leukemia ip, CD2F1 mice, survival T/C
Experiment: NCI In Vivo Anticancer Drug Screen. Data for tumor model P388 Leukemia (intraperitoneal) in CD2F1 (CDF1) mice
Details: endpoint: median survival time, higher = longer survival
How it was run: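 Mice carrying the transplanted tumor received test compound or vehicle. Survival was recorded in each group, and the value is the treated-group measurement divided by that of the vehicle-treated control group.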

[1] = dose: 60.0 mg/kg/injection, schedule: Q01DX005 (ip), vehicle: saline with Tween-80
[2] = dose: 120.0 mg/kg/injection, schedule: Q01DX005 (ip), vehicle: saline with Tween-80
[3] = dose: 240.0 mg/kg/injection, schedule: Q01DX005 (ip), vehicle: saline with Tween-80
[4] = dose: 60.0 mg/kg/injection, schedule: Q01DX005 (ip), vehicle: Klucel (hydroxypropylcellulose) (HPC)
[5] = dose: 120.0 mg/kg/injection, schedule: Q01DX005 (ip), vehicle: Klucel (hydroxypropylcellulose) (HPC)
[6] = dose: 100.0 mg/kg/injection, schedule: Q04DX003 (ip), vehicle: saline with Tween-80
[7] = dose: 50.0 mg/kg/injection, schedule: Q01DX009 (ip), vehicle: saline
[8] = dose: 100.0 mg/kg/injection, schedule: Q01DX009 (ip), vehicle: saline
[9] = dose: 6.25 mg/kg/injection, schedule: Q01DX005 (ip), vehicle: saline with Tween-80
[10] = dose: 12.5 mg/kg/injection, schedule: Q01DX005 (ip), vehicle: saline with Tween-80
[11] = dose: 25.0 mg/kg/injection, schedule: Q01DX005 (ip), vehicle: saline with Tween-80
[12] = dose: 100.0 mg/kg/injection, schedule: Q01DX005 (ip), vehicle: saline with Tween-80
[13] = dose: 200.0 mg/kg/injection, schedule: Q01DX005 (ip), vehicle: saline with Tween-80
[14] = dose: 50.0 mg/kg/injection, schedule: Q01DX005 (ip), vehicle: Klucel (hydroxypropylcellulose) (HPC)
[15] = dose: 100.0 mg/kg/injection, schedule: Q01DX005 (ip), vehicle: Klucel (hydroxypropylcellulose) (HPC)
[16] = dose: 200.0 mg/kg/injection, schedule: Q01DX005 (ip), vehicle: Klucel (hydroxypropylcellulose) (HPC)
[17] = dose: 200.0 mg/kg/injection, schedule: Q04DX003 (ip), vehicle: saline with Tween-80
[18] = dose: 400.0 mg/kg/injection, schedule: Q04DX003 (ip), vehicle: saline with Tween-80

Measured: T/C

CCOC1Oc2ccccc2-c2nc(C)c(C#N)cc21 (stereo not given)
inactive: [1] 90 % of control | [2] 88 % of control | [3] 90 % of control

CCOC(=O)CCCC(NC(=O)c1ccc(N2CCN(c3c(N)nc(N)nc3NC)CC2)cc1)C(=O)OCC (stereo not given)
inactive: [4] 91 % of control | [5] 87 % of control | dose: 240.0 mg/kg/injection, schedule: Q01DX005 (ip), vehicle: Klucel (hydroxypropylcellulose) (HPC) 96 % of control

COc1ccc(C(=O)/C=N/O)cc1
inactive: dose: 25.0 mg/kg/injection, schedule: Q04DX003 (ip), vehicle: saline with Tween-80 95 % of control | dose: 50.0 mg/kg/injection, schedule: Q04DX003 (ip), vehicle: saline with Tween-80 95 % of control | [6] 86 % of control

CC(CCc1ccccc1)C(=O)Nc1ccccc1 (stereo not given)
inactive: dose: 100.0 mg/kg/injection, schedule: Q04DX002 (ip), vehicle: saline with Tween-80 99 % of control | dose: 200.0 mg/kg/injection, schedule: Q04DX002 (ip), vehicle: saline with Tween-80 96 % of control | dose: 400.0 mg/kg/injection, schedule: Q04DX002 (ip), vehicle: saline with Tween-80 95 % of control

CC1(C)OC2(c3ccccc3)N(c3ccc([N+](=O)[O-])cc3)N=C(c3ccccc3)N2c2ccccc21 (stereo not given)
inactive: dose: 100.0 mg/kg/injection, schedule: Q01DX001 (ip), vehicle: saline with Tween-80 89 % of control | dose: 200.0 mg/kg/injection, schedule: Q01DX001 (ip), vehicle: saline with Tween-80 89 % of control | dose: 400.0 mg/kg/injection, schedule: Q01DX001 (ip), vehicle: saline with Tween-80 88 % of control

OC1COCCC(O)(CNCc2ccccc2)C1O (stereo not given)
inactive: [7] 98 % of control | [8] 107 % of control

CCCCCCCC(=O)C1C(c2ccc(C(C)C)cc2)CC(=O)C(CCCCCC)C1c1ccc(C(C)C)cc1 (stereo not given)
inactive: [9] 91 % of control | [10] 89 % of control | [11] 99 % of control | [12] 93 % of control | [13] 98 % of control

COC(=O)CCSC(=O)Nc1ccc(C)cc1
inactive: [14] 101 % of control | [15] 100 % of control | [16] 105 % of control

COC1(OC)C(=S)N(C(C)C)C(=S)N1C(C)C
inactive: [14] 100 % of control | [15] 96 % of control | [16] 100 % of control

CCCCCCCCCCCCCCC1(C(=O)OC)CO1 (stereo not given)
inactive: dose: 6.25 mg/kg/injection, schedule: Q01DX005 (ip), vehicle: Klucel (hydroxypropylcellulose) (HPC) 94 % of control | dose: 12.5 mg/kg/injection, schedule: Q01DX005 (ip), vehicle: Klucel (hydroxypropylcellulose) (HPC) 94 % of control | [14] 102 % of control

O=c1cccccc1Cl
inactive: dose: 50.0 mg/kg/injection, schedule: Q01DX009 (ip), vehicle: saline with Tween-80 104 % of control | dose: 100.0 mg/kg/injection, schedule: Q01DX009 (ip), vehicle: saline with Tween-80 101 % of control

Oc1ccc(C(c2cc3c(cc2O)OCO3)N2CCNCC2)cc1 (stereo not given)
inactive: [1] 114 % of control | [2] 115 % of control | [3] 113 % of control

NNC(=O)c1cnn(-c2ccc(N(CCO)CCO)nn2)c1N
inactive: dose: 75.0 mg/kg/injection, schedule: Q01DX005 (ip), vehicle: other 107 % of control | dose: 150.0 mg/kg/injection, schedule: Q01DX005 (ip), vehicle: other 107 % of control | dose: 250.0 mg/kg/injection, schedule: Q01DX005 (oral), vehicle: water 104 % of control | dose: 300.0 mg/kg/injection, schedule: Q01DX005 (ip), vehicle: other 93 % of control | dose: 500.0 mg/kg/injection, schedule: Q01DX005 (oral), vehicle: water 110 % of control | dose: 1000.0 mg/kg/injection, schedule: Q01DX005 (oral), vehicle: water 103 % of control

CCn1c(=O)c2[nH]c(I)nc2n(CC)c1=O
inactive: dose: 25.0 mg/kg/injection, schedule: Q01DX009 (ip), vehicle: Klucel (hydroxypropylcellulose) (HPC) 99 % of control | dose: 50.0 mg/kg/injection, schedule: Q01DX009 (ip), vehicle: Klucel (hydroxypropylcellulose) (HPC) 99 % of control | dose: 100.0 mg/kg/injection, schedule: Q01DX009 (ip), vehicle: Klucel (hydroxypropylcellulose) (HPC) 106 % of control

Cn1c(C(Cl)Cl)nc2ccccc2c1=O
inactive: dose: 12.5 mg/kg/injection, schedule: Q04DX003 (ip), vehicle: Klucel (hydroxypropylcellulose) (HPC) 95 % of control | dose: 25.0 mg/kg/injection, schedule: Q04DX003 (ip), vehicle: Klucel (hydroxypropylcellulose) (HPC) 104 % of control | dose: 50.0 mg/kg/injection, schedule: Q04DX003 (ip), vehicle: Klucel (hydroxypropylcellulose) (HPC) 104 % of control

O=[N+]([O-])c1cc2c([N+](=O)[O-])cccc2o1
inactive: dose: 100.0 mg/kg/injection, schedule: Q04DX003 (ip), vehicle: Klucel (hydroxypropylcellulose) (HPC) 102 % of control | dose: 200.0 mg/kg/injection, schedule: Q04DX003 (ip), vehicle: Klucel (hydroxypropylcellulose) (HPC) 103 % of control

CC(C)C12CCC3(C)CCC1(C)CCC32O (stereo not given)
inactive: dose: 12.0 mg/kg/injection, schedule: Q01DX009 (ip), vehicle: Klucel (hydroxypropylcellulose) (HPC) 111 % of control | dose: 24.0 mg/kg/injection, schedule: Q01DX009 (ip), vehicle: Klucel (hydroxypropylcellulose) (HPC) 96 % of control | dose: 48.0 mg/kg/injection, schedule: Q01DX009 (ip), vehicle: Klucel (hydroxypropylcellulose) (HPC) 96 % of control | dose: 96.0 mg/kg/injection, schedule: Q01DX009 (ip), vehicle: Klucel (hydroxypropylcellulose) (HPC) 111 % of control

O=C1c2ccccc2-c2nc3ncccc3cc21
inactive: [6] 98 % of control | [17] 102 % of control | [18] 102 % of control

Cc1cc2ncnn2cn1
inactive: [6] 99 % of control | [17] 99 % of control | [18] 93 % of control

CC(=O)OC1C=CCC2C(=O)OC(=O)C12 (stereo not given)
inactive: dose: 30.0 mg/kg/injection, schedule: Q01DX005 (ip), vehicle: Klucel (hydroxypropylcellulose) (HPC) 103 % of control and 90 % of control | [4] 100 % of control | [5] 105 % of control and 90 % of control

CCNC(=S)N/N=C/c1nccc(-c2ccccc2)c1C
inactive: dose: 25.0 mg/kg/injection, schedule: Q01DX009 (ip), vehicle: saline 117 % of control and 94 % of control | [7] 100 % of control and 103 % of control (2×) | [8] 99 % of control and 108 % of control | dose: 200.0 mg/kg/injection, schedule: Q01DX009 (ip), vehicle: saline 100 % of control

CCCCN(CCCC)c1ccc(C(=NC(C)CCCN(CC)CC)c2ccc(N(C)C)cc2)cc1 (stereo not given)
inactive: [9] 107 % of control | [10] 98 % of control | [11] 100 % of control

C1CN1c1nnc(N2CC2)nn1
active: dose: 7.5 mg/kg/injection, schedule: Q01DX005 (ip), vehicle: saline 178 % of control | dose: 30.0 mg/kg/injection, schedule: Q01DX005 (ip), vehicle: saline 260 % of control

FC(F)(F)c1cccc(C(Nc2nncs2)Nc2nncs2)c1
inactive: dose: 50.0 mg/kg/injection, schedule: Q01DX005 (ip), vehicle: saline with Tween-80 96 % of control | [12] 91 % of control | [13] 88 % of control
